Experiment [1] addresses Beta-2 adrenergic receptor (Canis lupus familiaris) (UniProt P54833). Nature of the experiment: Apparent pA2 value for isoproterenol-induced vasodilation (beta2) evaluated against beta-2 adrenergic receptor in anesthetized dogs.
The target of experiment [2] is Adrenergic receptor beta; ADRB1 & ADRB2 (Homo sapiens) (UniProt P08588+P07550). Conditions: Canis lupus familiaris.
Description: Apparent pA2 value for blockade of isoproterenol-induced increase in heart rate evaluated against beta adrenergic receptor in anesthetized dogs
The target of experiment [3] is Beta-1 adrenergic receptor (Homo sapiens) (UniProt P08588). Conditions: Canis lupus familiaris.
Chain of Beta-1 adrenergic receptor (Homo sapiens) (P08588 whole entry, looked up): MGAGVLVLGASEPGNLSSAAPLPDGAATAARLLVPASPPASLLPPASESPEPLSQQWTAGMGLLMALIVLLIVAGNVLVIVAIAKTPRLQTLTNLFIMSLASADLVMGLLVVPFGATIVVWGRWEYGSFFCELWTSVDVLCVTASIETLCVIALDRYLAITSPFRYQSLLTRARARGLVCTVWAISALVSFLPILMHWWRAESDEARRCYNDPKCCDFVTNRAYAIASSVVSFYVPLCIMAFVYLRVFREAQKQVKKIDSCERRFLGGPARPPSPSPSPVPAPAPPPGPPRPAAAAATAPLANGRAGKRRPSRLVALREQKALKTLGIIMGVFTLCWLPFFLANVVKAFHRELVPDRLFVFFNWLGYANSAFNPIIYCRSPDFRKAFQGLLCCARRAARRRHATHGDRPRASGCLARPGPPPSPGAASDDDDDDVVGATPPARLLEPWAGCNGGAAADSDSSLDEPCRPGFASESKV
Description: Apparent pA2 value for myocardial contractile force (beta-1) evaluated against beta-1 adrenergic receptor in anesthetized dogs

These results are taken from ChEMBL document CHEMBL1123020.

Chain of Adrenergic receptor beta; ADRB1 & ADRB2 (Homo sapiens) (P07550 whole entry, looked up): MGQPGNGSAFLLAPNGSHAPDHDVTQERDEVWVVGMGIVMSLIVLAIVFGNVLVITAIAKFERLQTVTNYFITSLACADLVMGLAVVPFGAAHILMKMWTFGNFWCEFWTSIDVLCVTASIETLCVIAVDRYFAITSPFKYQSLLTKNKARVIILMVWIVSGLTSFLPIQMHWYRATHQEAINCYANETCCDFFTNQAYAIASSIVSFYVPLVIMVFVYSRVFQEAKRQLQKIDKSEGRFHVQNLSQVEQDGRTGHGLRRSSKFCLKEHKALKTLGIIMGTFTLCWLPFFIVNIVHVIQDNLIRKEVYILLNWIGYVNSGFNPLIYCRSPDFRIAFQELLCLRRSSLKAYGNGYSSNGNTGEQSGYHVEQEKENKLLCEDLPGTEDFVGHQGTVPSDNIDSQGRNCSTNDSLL
Chain of Adrenergic receptor beta; ADRB1 & ADRB2 (Homo sapiens) (P08588 whole entry, looked up): as the sequence (P08588 whole entry, looked up) above
Chain of Beta-2 adrenergic receptor (Canis lupus familiaris) (P54833 whole entry, looked up): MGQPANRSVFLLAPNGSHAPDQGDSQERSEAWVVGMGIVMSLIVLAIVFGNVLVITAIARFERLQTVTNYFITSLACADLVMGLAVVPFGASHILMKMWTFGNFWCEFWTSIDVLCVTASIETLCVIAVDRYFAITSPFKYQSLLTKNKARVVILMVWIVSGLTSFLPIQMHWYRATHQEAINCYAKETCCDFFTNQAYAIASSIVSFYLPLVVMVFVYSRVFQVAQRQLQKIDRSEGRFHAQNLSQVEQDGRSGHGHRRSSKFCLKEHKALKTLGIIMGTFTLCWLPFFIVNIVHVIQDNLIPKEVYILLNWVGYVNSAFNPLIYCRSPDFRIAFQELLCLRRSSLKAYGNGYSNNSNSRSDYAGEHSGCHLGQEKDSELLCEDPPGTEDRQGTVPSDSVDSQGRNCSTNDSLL

In the case of `CC(C)NCC(O)COc1ccc(O)c2ccccc12` (stereo not drawn), in experiment [1], the Vasodilation came out at 4.82. The compound also displayed a Heart rate in experiment [2] of 5.12. In experiment [3], the Contractile force came out at 4.75.
